# Laboratory results as given in US20100010078A1, “METHODS OF TREATING ANDROGEN DEPENDENT PROSTATE CANCER BY ADMINISTERING AN ACTIVE PHARMACEUTICAL INGREDIENT BEING FISETIN, 3,3',4',7-TETRAHYDROXYFLAVONE OR A DERIVATIVE THEREOF, IN AN ORAL, TRANSDERMAL OR TOPICAL DOSAGE FORM” (priority 2008, published 2010).
# Read-outs that look alike come from different tables or passages of the source.
# Assays:
# LNCaP cells [1] = assay: Apoptosis assessment by annexin-V staining; assay type: cell-based, human; details: fisetin 10-60 μM, 48 h
# Procedure: Apoptosis assessment by annexin-V staining. The Annexin-V-Fluos staining kit was used for the detection of apoptotic cells according to vendor's protocol. This kit uses a staining protocol in which the apoptotic cells are stained with annexin-V (green fluorescence). The LNCaP cells were grown to 70% confluency and treated with fisetin (10-60 μM) for 48 h. The fluorescence was measured by a Zeiss 410 confocal microscope (Thornwood, N.Y.). Confocal images of green annexin-FITC fluorescence were collected using 488 nm excitation light from an argon/krypton laser, a 560 nm dichroic mirror and a 514-540 nm bandpass barrier filter.
# Bax and Bcl-2 = assay: Western blot, Bax and Bcl-2 in LNCaP cells; assay type: cell-based, human; details: fisetin 10-60 μM, 48 h
# Procedure: (§1) Protein extraction and western blotting. Following the treatment of LNCaP cells with fisetin (10-60 μM; 48 h), the media was aspirated, the cells were washed with cold PBS (pH 7.4), and ice-cold lysis buffer (50 mM Tris-HCl, 150 mM NaCl, 1 mM EGTA, 1 mM EDTA, 20 mM NaF, 100 mM Na3VO4, 0.5% NP-40, 1% Triton X-100, 1 mM PMSF (pH 7.4)) with freshly added protease inhibitor cocktail (Protease Inhibitor Cocktail Set III, Calbiochem, La Jolla, Calif.) over ice for 30 min. The cells were scraped and the lysate was collected in a microfuge tube and passed through a needle to break up the cell aggregates. The lysate was cleared by centrifugal ion al 14,000 g for 15 min at 4° C. and the supernatant (whole cell lysate) was used or immediately stored at −8020 C.
# (§2) For western blotting, 30-50 μg protein was resolved over 8-12% polyacrylamide gels and transferred to a nitrocellulose membrane. The blot was blocked in blocking buffer (5% nonfat dry milk/1% Tween 20; in 20 mM TBS, pH 7.6) for 1 hr at room temperature, incubated with appropriate monoclonal or polyclonal primary antibody in blocking buffer for 1.5 h to overnight at 4° C., followed by incubation with anti-mouse or anti-rabbit secondary antibody horseradish peroxidase conjugate obtained from Amersham Life Science Inc. and detected by chemiluminescence and autoradiography using XAR-5 film obtained from Eastman Kodak Co. (Rochester, N.Y., USA). Densitometric measurements of the band in Western blot analysis were performed using digitalized scientific software program UN-SCAN-IT (Silk Scientific Corporation. Orem, Utah.
# LNCaP cells [2] = assay: MTT cell viability assay, LNCaP cells; assay type: cell-based; details: Homo sapiens, read-out: decrease in cell viability; for cytotoxicity at 10 µM: fisetin 10 μM; for cytotoxicity at 20 µM: fisetin 20 μM; for cytotoxicity at 40 µM: fisetin 40 μM; for cytotoxicity at 60 µM: fisetin 60 μM
# Procedure: (§3) obtained from ATCC (Manassas, Va.). LNCaP cells were cultured in Dulbecco's Modified Eagle's medium supplemented with 5% heat-inactivated fetal bovine serum and 1% penicillin/streptomycin (P-S). CWR22Ru1 and PC-3 cells were grown in RPMI 1640 (Invitrogen) supplemented with 10% fetal bovine serum and 1% P-S. Human prostate epithelial cells (PrEC) were obtained from Cambrex Bioscience (Walkersville, Md.) and grown in prostate epithelial basal cell medium (Cambrex Bioscience) according to the manufacturer's instructions. The cells were maintained under standard cell culture conditions at 37° C. and 5% CO2 in a humid environment. Fisetin dissolved in dimethyl sulfoxide (final concentration 0.1% v/v) was used for the treatment of cells. The cells (60-70% confluent) were treated with fisetin (10-60 μM) for 24 and 48 h in complete growth medium.
# (§4) Cell viability. The effect of fisetin on the viability of cells was determined by 3-[4,5-dimethylthiazol-2-yl]-2,5-diphenyl tetrazoliumbromide assay. LNCaP, CWR22Ru1, PC-3 and PrEC cells were plated at 1×10^4 cells per well in 200 μl of complete culture medium containing 10-60 μM concentrations of fisetin in 96-well microtiter plates for 24 and 48 h. After incubation for specified times at 37° C. in a humidified incubator, 3-[4,5-dimethylthiazol-2-yl]-2,5-diphenyl tetrazoliumbromide (5 mg/ml in PBS) was added to each well and incubated for 2 h, after which the plate was centrifuged at 1,800×g for 5 min at 4° C. The absorbance was recorded on a microplate reader at the wavelength of 540 nm. The effect of fisetin on growth inhibition was assessed as percent cell viability where DMSO-treated cells were taken as 100% viable. DMSO at the concentrations used was without any effect on cell viability.
# CWR22Ru1 cells = assay: MTT cell viability assay, CWR22Ru1 cells; assay type: cell-based; details: Homo sapiens, read-out: decrease in cell viability; for cytotoxicity at 10 µM: CWR22Ru1, fisetin 10 μM; for cytotoxicity at 20 µM: CWR22Ru1, fisetin 20 μM; for cytotoxicity at 40 µM: CWR22Ru1, fisetin 40 μM; for cytotoxicity at 60 µM: CWR22Ru1, fisetin 60 μM
# Procedure: as §3, §4
# [3] = tested on: Bad, Bax, Bcl2 and Bcl-xL; assay: Silencing of Akt by siRNA, Bcl2-family proteins in LNCaP cells; assay type: cell-based, human; details: LNCaP transfected with Akt-siRNA, fisetin 40 μM, 48 h
# Procedure: Silencing of Akt by Small Interfering RNA. LNCaP cells were transfected with Akt-siRNA (75 nmol) and scrambled siRNA (75 nmol) procured from Dharmacon (Lafayette, Colo.) using the Nucleofection Kit R specific for LNCaP transfection from Amaxa Biosystems (Gaithersburg, Md.). Cells were resuspended in a solution from nucleofector kit R following the manufacturer's guidelines. 100 μl of nucleofector solution R was mixed with 2×10^6 cells and siRNA. They were then transferred to the cuvette provided with the kit and were nucleofected with an Amaxa Nucleofector apparatus. Cells were transfected using the T-001 pulsing parameter and were transferred into 100-mm plates containing 37° C. prewarmed culture medium. After transfection, cells were cultured and the medium was replaced with fresh medium. Cells were treated with 40 μM fisetin for 48 h, and protein lysates were prepared. Using 2 μg of GFP we observed 70-80% transfection efficiency with this protocol.
# Bak, Bcl-xL, Bad and Bid = assay: Western blot, Bak, Bad, Bid and Bcl-xL in LNCaP cells; assay type: cell-based, human; details: fisetin 10-60 μM, 48 h
# Procedure: as §1, with “The lysate was cleared by centrifugal ion al 14,000 g for 15 min at 4° C. and the supernatant (whole cell lysate) was used or immediately stored at −8020 C.” left out
# as §2, with “Densitometric measurements of the band in Western blot analysis were performed using digitalized scientific software program UN-SCAN-IT (Silk Scientific Corporation. Orem, Utah.” left out
# [4] = tested on: cyclin D1, cyclin D2 and cyclin E; assay: Western blot, cyclins in LNCaP cells; assay type: cell-based, human; details: fisetin 10-60 μM, 48 h
# Procedure: as §1, with “The lysate was cleared by centrifugal ion al 14,000 g for 15 min at 4° C. and the supernatant (whole cell lysate) was used or immediately stored at −8020 C.” left out
# as §2, with “Densitometric measurements of the band in Western blot analysis were performed using digitalized scientific software program UN-SCAN-IT (Silk Scientific Corporation. Orem, Utah.” left out
# cytochrome c = assay: Detection of cytochrome c release into cytosol; assay type: cell-based, human; details: LNCaP, fisetin 10-60 μM, 48 h
# Procedure: Detection of cytochrome c release. After the treatment of LNCaP cells with fisetin (10-60 μM; 48 h), the mitochondrial and cytosolic fractions were prepared according to manufacturer's instructions. After the separation of cytosolic and mitochondrial fraction, 40 μg protein was resolved over 12% polyacrylamide gels and immunoblotted with the cytochrome c and Cox-4 antibodies.
smiles,measurement,setting,value
"O=c1c(O)c(-c2ccc(O)c(O)c2)oc2cc(O)ccc12 [fisetin, 3,3′,4′,7-tetrahydroxyflavone]",apoptotic cells by annexin-V staining,LNCaP cells [1],increased
same,protein expression of Bax,Bax and Bcl-2,significant increase
same,protein expression of Bcl-2,Bax and Bcl-2,significantly decreased
same,ratio of Bax to Bcl-2,Bax and Bcl-2,significant dose-dependent shift
same,cytotoxicity at 10 µM,LNCaP cells [2]; 24 h,15%
same,cytotoxicity at 10 µM,LNCaP cells [2]; 48 h,19%
same,cytotoxicity at 20 µM,LNCaP cells [2]; 24 h,33%
same,cytotoxicity at 20 µM,LNCaP cells [2]; 48 h,40%
same,cytotoxicity at 40 µM,LNCaP cells [2]; 24 h,45%
same,cytotoxicity at 40 µM,LNCaP cells [2]; 48 h,49%
same,cytotoxicity at 60 µM,LNCaP cells [2]; 24 h,57%
same,cytotoxicity at 60 µM,LNCaP cells [2]; 48 h,62%
same,cytotoxicity at 10 µM,CWR22Ru1 cells; 24 h,12%
same,cytotoxicity at 10 µM,CWR22Ru1 cells; 48 h,18%
same,cytotoxicity at 20 µM,CWR22Ru1 cells; 24 h,26%
same,cytotoxicity at 20 µM,CWR22Ru1 cells; 48 h,34%
same,cytotoxicity at 40 µM,CWR22Ru1 cells; 24 h,38%
same,cytotoxicity at 40 µM,CWR22Ru1 cells; 48 h,44%
same,cytotoxicity at 60 µM,CWR22Ru1 cells; 24 h,52%
same,cytotoxicity at 60 µM,CWR22Ru1 cells; 48 h,55%
same,"Bad, Bax, Bcl2 and Bcl-xL protein expression in Akt-siRNA treated cells",[3],augmented the increase in Bad and Bax and decrease in Bcl2 and Bcl-xL
same,Bcl-xL expression,"Bak, Bcl-xL, Bad and Bid",significant decrease
same,"protein expression of Bak, Bad and Bid","Bak, Bcl-xL, Bad and Bid",significant increase
same,"protein expression of cyclins D1, D2 and E",[4],dose-dependent decrease
same,levels of cytochrome c in the cytosol,cytochrome c,elevated dose-dependently
